According to patent US10722492B2, “Andrographolide treats progressive forms of multiple sclerosis” (INNOBIOSCIENCES, LLC, priority 2016, dated 2020):
Read-outs that look alike come from different tables or passages of the source.

How the values were obtained:
SP & PPMS forms = details: summary of prior art; cited from earlier work
PPMS patients = details: cited from earlier work
[1] = tested on: patients with Secondary progressive MS; details: cited from earlier work
[2] = tested on: subjects with Secondary progressive MS with relapses; details: vs placebo; cited from earlier work
progressive MS patients = details: cited from earlier work
MS participants = details: cited from earlier work
patients with PPMS = details: 95% confidence interval 0.71-1.07; p=0.1753; non-significant delay; cited from earlier work
SPMS and PPMS patients = details: cited from earlier work
[3] = tested on: patients with all clinical forms of MS; details: cited from earlier work
[4] = tested on: patients with worsening RRMS or SPMS with relapses; details: 24 months, 95% CI 0.17-0.44; p<0.001; cited from earlier work
[5] = tested on: patients with RRMS, PRMS and SPMS with relapses; details: 2 years follow-up, p=0.05; cited from earlier work
[6] = tested on: Jurkat cell line (lymphom of T cells); details: through inhibition of NFAT and MAPK-Erk 1/2; cited from earlier work
dendritic cells = details: mice model; cited from earlier work
[7] = many clinical studies; cited from earlier work
[8] = tested on: MOG-immunized C57BL/6J mice (EAE); test: EAE therapeutic treatment from chronic phase (day 15 post-immunization); format: in vivo
Method: […] […] As controls MOG-immunized C57BL/6J mice were injected with vehicle (PBS) daily. At day 21 p.i. mice were sacrificed. MOG-immunized mice treated with either PBS (A-C) or AG (B-D) were perfussed and 4% p-formaldehyde fixed. Toraxic spinal cords sections were dissected and analyzed for inflammatory infiltrate by hematoxylin-eosin staining (H&E) and for demyelination with luxol fast blue staining (LFB). Insets show higher magnification (20×).

[9] = tested on: patients with progressive forms of Multiple Sclerosis; test: Controlled, randomized, double-blinded human clinical trial of andrographolide; format: in vivo
Method: We have tested andrographolide in a controlled, randomized, double-blinded human clinical trial of andrographolide 140 mg orally administered twice per day (i.e., 280 mg per day) in patients with progressive forms of Multiple Sclerosis. The principle objective of that study was to determine efficacy, safety and tolerability of andrographolide in retarding the progression of brain atrophy. Secondary end-points included: delay in the disability capacity progression through the Expanded Disability Status Scale (EDSS) and Multiple Sclerosis Funcitonal Composite (MSFC) at 24 months compared to the baseline; delay in cognitive impairment by means of Paced Auditory Serial Addition Test (PASAT), Symbol Digit Modalities Test (SDMT) and depression (Beck) at 24 months compared to the baseline; quality of life Multiple Sclerosis Impact Scale (MSIS 29) and fatigue (Krupp) through parameters reported by the patients at 24 months compared to the baseline; Tolerability of andrographolide measured by Magnetic Resonance (MR) at 24 months compared to baseline; Number and volume of new lesions or larger size in T2 by MR at 24 months compared to the baseline; Number of new hipointense lesions in T1 or (gadolinium captive) by MR at 24 months compared to baseline; Delay in the retinal thinning measured by Optical Coherence Tomography (OCT) and visual field at 24 months compared to the baseline; and Safety of andrographolide at 24 months through the record of adverse effects in symptom diary and programmed interviews. The details of the study are described more completely in U.S. Provisional patent application Ser. No. 62/347,218 (filed 8 Jun. 2016), incorporated here by reference.
The numbers (x axis) on the figure are measurements 6: corresponds to 2 year treatment. There are still many patients that need to complete the 2 year treatment. The data therefore show a lot of variance. […] The 9-HPT is a brief, standardized, quantitative test of upper extremity function. It is the second component of the MSFC to be administered at each visit. Both the dominant and non-dominant hands are tested twice. The patient is seated at a table with a small, shallow container holding nine pegs and a wood or plastic block containing nine empty holes. On a start command when a stopwatch is started, the patient picks up the nine pegs one at a time as quickly as possible, puts them in the nine holes, and, once they are in the holes, removes them again as quickly as possible one at a time, replacing them into the shallow container. The total time to complete the task is recorded. Two consecutive trials with the dominant hand are immediately followed by two consecutive trials with the non-dominant hand.
There are 3 components of the Multiple Sclerosis Functional Composite (MSFC) disease activity index: function of the legs, function of the arms and cognitive function. The corresponding tests are a 25 feet (7.6 m) walk; test of 9 holes and pin and the Paced Auditory Serial Addition test 3 (PASAT3). Multiple attempts will be made of each test in each visit. The MSFC score and the scores of the 3 sub-scales and the change from the basal values will be recorded in each visit
One measure of progressive MS disease severity is the Expanded Disability Status Scale (EDSS). EDSS is a scale to determine the neurological disability in MS and is used to confirm progression of the disease. It consists of a system of two parts. The first part measures eight functional systems (FS). The second part measures disability on a scale of […], zero being no disability and 10 being death due to MS.
The Nine Hole Pin Test (9HPT) is a component of the MS Functional Composite (MSFC) score. 9HPT is a timed test measuring the time (seconds) required to insert each of nine pins into nine holes in a plank. The test is done on each of the right and left arms. The test measures eye-hand coordination and fine muscle control. […]

EAE model = details: prophylactic administration; cited from earlier work
microglia = details: cited from earlier work
MOG-immunized mice (EAE) = test: EAE prevention: treatment before MOG immunization, daily clinical score; format: in vivo; details: MOG-immunized one week after treatment, FIG. 1B
Method: (§1) (A) Lymph node cell suspensions obtained from C57BL/6 and BALB/c mice were co-cultured with increasing concentrations of IB-MS for 72 h. After this time, supernatants were harvested and analyzed for IL-2 release by ELISA assay (circles) and T cell proliferation (squares) was determined by Cell Titer assay. (B) Mice treated with vehicle (solid circles) or andrographolide (empty circles) were MOG-immunized one week later and clinical score determined daily.

[10] = tested on: Lymph node cell suspensions obtained from C57BL/6 and BALB/c mice; test: Lymph node cell co-culture, IL-2 release (ELISA) and T cell proliferation (Cell Titer); format: cell-based; details: increasing concentrations, 72 h, FIG. 1A
Method: as §1

[11] = 4 mg/kg daily, day 15 to day 20 post-immunization, FIG. 3
[12] = twelve months of treatment, FIG. 7

**Q.** With natalizumab as the compound, how does the “slowing down / reduction of disability progression in progressive MS” value (“slowing down / reduction” below) (SP & PPMS forms) read?
**A.** no effect on the progressive forms

**Q.** Which “increase in T2 lesion volume” value (PPMS patients; baseline to week 96, p<0.001) does the source give for Rituximab here?
**A.** less

**Q.** And the brain volume change (PPMS patients; baseline to week 96, p=0.62)?
**A.** similar

**Q.** And the “confirmed disease progression, 96-week rate” value (PPMS patients; placebo 38.5%, p=0.14, not significant)?
**A.** 30.2%

**Q.** What about the adverse events (PPMS patients; vs placebo) of the same compound?
**A.** comparable between groups

**Q.** For Interferon beta-1b [IFNB-1b], which “time to confirmed 1.0 point progression on the Expanded Disability Status Scale (EDSS)” value ([1]; p=0.007) is on record?
**A.** delayed

**Q.** What about the “progression of 2.0 EDSS point, lower” value ([1]; vs placebo) of the same compound?
**A.** 27%

**Q.** And the “relapse and MRI-related outcomes” value [2]?
**A.** significant benefit

**Q.** What about the “time to confirmed progression of disability” value [2] of the same compound?
**A.** no treatment benefit

**Q.** And the “slowing down / reduction” value (SP & PPMS forms)?
**A.** failed to demonstrate efficacy

**Q.** For `CN(Cc1cnc2nc(N)nc(N)c2n1)c1ccc(C(=O)N[C@@H](CCC(=O)O)C(=O)O)cc1` [methotrexate, Methotrexate], which major side effects (progressive MS patients; in vivo) is on record?
**A.** no major side effects

**Q.** And the “minor side effects reported” value (progressive MS patients; placebo 89.7%)?
**A.** 87.1%

**Q.** And the “sustained EDSS progression and number of relapses” value (progressive MS patients; vs placebo)?
**A.** non-significant reduction

**Q.** And the “time to first relapse” value (progressive MS patients; vs placebo)?
**A.** no difference in time to first relapse

**Q.** What about the “slowing down / reduction” value (SP & PPMS forms) of the same compound?
**A.** do not show a reduction in the progression of disability

**Q.** With `O=P1(N(CCCl)CCCl)NCCCO1` (stereo not drawn) [cyclophosphamide, Cyclophosphamide] as the compound, how does the “long-term clinical disability progression (evolution to a next step of EDSS score)” value (MS participants; 12, 18, 24 months) read?
**A.** did not prevent

**Q.** And the “mean change in disability (effect size)” value (MS participants; 12 months, 95% confidence interval −0.25 to −0.17)?
**A.** −0.21

**Q.** What about the “mean change in disability (effect size)” value (MS participants; 18 months, 95% confidence interval −0.24 to −0.14) of the same compound?
**A.** −0,19

**Q.** And the “mean change in disability (effect size)” value (MS participants; 24 months, CI 0.07 to 0.21, favoured the control group)?
**A.** 0.14

**Q.** What about the “slowing down / reduction” value (SP & PPMS forms) of the same compound?
**A.** do not show a reduction in the progression of disability

**Q.** With Glatiramer Acetate as the compound, how does the “time to sustained accumulated disability (hazard ratio)” value (patients with PPMS) read?
**A.** 0.87

**Q.** And the “slowing down / reduction” value (SP & PPMS forms)?
**A.** failed to demonstrate efficacy

**Q.** And the local injection-site reactions (SPMS and PPMS patients; in vivo)?
**A.** up to a half of patients

**Q.** What about the major toxicity (SPMS and PPMS patients; in vivo) of the same compound?
**A.** No major toxicity

**Q.** What about the “benefit in SPMS and PPMS patients” value (SPMS and PPMS patients; meta-analysis) of the same compound?
**A.** No benefit

**Q.** With `Cn1cnc([N+](=O)[O-])c1Sc1ncnc2nc[nH]c12` [azathioprine, Azathioprine] as the compound, how does the “number of patients who had relapses, relative risk reduction [RRR]” value (“number … relative risk reduction [RRR]” below) ([3]; first year of treatment, 95% CI=5% to 33%) read?
**A.** 20%

**Q.** And the “number … relative risk reduction [RRR]” value ([3]; three years follow-up, 95% CI=7% to 27%)?
**A.** 18%

**Q.** And the “number of patients who progressed, RRR” value ([3]; three years' follow-up, 95% CI=7% to 64%, 87 patients)?
**A.** 42%

**Q.** And the “number … relative risk reduction [RRR]” value ([3]; two years, 95% CI=12% to 33%)?
**A.** 23%

**Q.** What about the “slowing down / reduction” value (SP & PPMS forms) of the same compound?
**A.** do not show a reduction in the progression of disability

**Q.** For `O=C1c2c(O)ccc(O)c2C(=O)c2c(NCCNCCO)ccc(NCCNCCO)c21` [mitoxantrone, Mitoxantrone], which “different clinical measures (difference vs placebo)” value [4] is on record?
**A.** 0.3

**Q.** What about the “proportion of patients with 6-months confirmed progression of disability (Odds Ratios)” value [5] of the same compound?
**A.** 0.3

**Q.** And the “slowing down / reduction” value (SP & PPMS forms)?
**A.** do not show a reduction in the progression of disability

**Q.** Which “process of activation of Jurkat cell line” value [6] does the source give for `C=C1CC[C@@H]2[C@](C)(CO)[C@H](O)CC[C@@]2(C)[C@@H]1C/C=C1/C(=O)OC[C@H]1O` [andrographolide, Andrographolide] here?
**A.** decreases

**Q.** What about the “maturation of dendritic cells and capacity to present antigens to T cells” value (dendritic cells) of the same compound?
**A.** decreases

**Q.** And the tolerability and safety [7]?
**A.** well tolerated and safe

**Q.** What about the “demyelination in spinal cord (LFB)” value [8, 11] of the same compound?
**A.** reduced

**Q.** What about the “inflammatory infiltrate in spinal cord (H&E)” value [8, 11] of the same compound?
**A.** reduced

**Q.** What about the “efficacy, interim results” value ([9]; 12 months of treatment) of the same compound?
**A.** statistically-significant efficacy

**Q.** What about the “Expanded Disability Status Scale (EDSS)” value ([9]; 12 months of treatment vs placebo, FIG. 6) of the same compound?
**A.** an improvement viz placebo which becomes statistically-significant by nine months

**Q.** What about the “MSIS 29 scale scores” value ([9]; preliminary, 2 years vs day 0, FIG. 11) of the same compound?
**A.** maintain or slightly improve their scores

**Q.** And the “MSIS 29 scale” value ([9]; treatment group (a), after 2 years, from 80 at day 0, FIG. 11)?
**A.** 90 percentage

**Q.** And the “Nine Hole Pin Test, left hand (9HPT-L), time to complete” value [9, 12]?
**A.** the improvement becomes statistically significant almost immediately

**Q.** And the “Nine Hole Pin Test, right hand (9HPT-R), time to complete” value [9, 12]?
**A.** improvement becomes statistically significant by twelve months of treatment

**Q.** What about the “9-HPT (upper extremity function)” value ([9]; up to 2 year treatment, FIG. 10) of the same compound?
**A.** the treated patients are more skilled and more quickly complete the task

**Q.** What about the “25-Feet Walk Test (25 FWT), time to complete” value ([9]; vs placebo, twelve months, preliminary data, FIG. 8) of the same compound?
**A.** improvement becomes statistically significant immediately on commencement of treatment

**Q.** And the “development of EAE” value (EAE model)?
**A.** prevents the development Of EAE

**Q.** What about the “reactive oxygen species, TNF-α, nitric oxide and prostaglandins E2” value (microglia) of the same compound?
**A.** reduces

**Q.** For Andrographolide, which “effect in EAE” value ([8]; 4 mg/kg every second day, day 15 to day 30 post-immunization, FIG. 2) is on record?
**A.** has a therapeutic effect in EAE

**Q.** And the EAE clinical score (MOG-immunized mice (EAE))?
**A.** prevents EAE

**Q.** And the “T cell activation (IL-2 release, T cell proliferation)” value [10]?
**A.** interferes with T cell activation
